# Reference: PubChem BioAssay (NCI)
#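 All cell lines were grown in 96-well plates and treated with compound for 48 hours. Definition used: TGI = concentration required for complete inhibition of growth.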
# Experiments:
# Experiment in all cases: NCI anticancer screen, dose series, 48 h
# RXF 393 renal = system: RXF 393 renal
# MDA-MB-435 = system: MDA-MB-435
# OVCAR-3 ovarian = system: OVCAR-3 ovarian
# SNB-19 CNS = system: SNB-19 CNS
# HT29 colon = system: HT29 colon
# SW-620 colon = system: SW-620 colon
# UACC-257 melanoma = system: UACC-257 melanoma
# U251 CNS = system: U251 CNS
# MDA-MB-231 breast = system: MDA-MB-231 breast
# K-562 leukemia = system: K-562 leukemia
# MCF7 breast = system: MCF7 breast
# SF-268 CNS = system: SF-268 CNS
# HCC-2998 colon = system: HCC-2998 colon
# CCRF-CEM leukemia = system: CCRF-CEM leukemia
# SR leukemia = system: SR leukemia
# MDA-N = system: MDA-N
# HCT-15 colon = system: HCT-15 colon
# MOLT-4 leukemia = system: MOLT-4 leukemia
# 786-0 renal = system: 786-0 renal
# OVCAR-5 ovarian = system: OVCAR-5 ovarian
# IGROV1 ovarian = system: IGROV1 ovarian
# SK-MEL-5 melanoma = system: SK-MEL-5 melanoma
# T-47D breast = system: T-47D breast
# SK-OV-3 ovarian = system: SK-OV-3 ovarian
# SN12C renal = system: SN12C renal
# COLO 205 colon = system: COLO 205 colon
# HL-60(TB) leukemia = system: HL-60(TB) leukemia
# M14 melanoma = system: M14 melanoma
# PC-3 prostate = system: PC-3 prostate
# CAKI-1 renal = system: CAKI-1 renal
# UO-31 renal = system: UO-31 renal
# RPMI-8226 leukemia = system: RPMI-8226 leukemia
# OVCAR-8 ovarian = system: OVCAR-8 ovarian
# NCI-H460 lung = system: NCI-H460 lung
# UACC-62 melanoma = system: UACC-62 melanoma
# A498 renal = system: A498 renal
# HCT-116 colon = system: HCT-116 colon
# NCI-H226 lung = system: NCI-H226 lung
# NCI/ADR-RES ovarian = system: NCI/ADR-RES ovarian
# SNB-75 CNS = system: SNB-75 CNS
# TK-10 renal = system: TK-10 renal
# HOP-92 NSCLC = system: HOP-92 NSCLC
# OVCAR-4 ovarian = system: OVCAR-4 ovarian
# EKVX NSCLC = system: EKVX NSCLC
# ACHN renal = system: ACHN renal
# HOP-62 NSCLC = system: HOP-62 NSCLC
# KM12 colon = system: KM12 colon
# SK-MEL-28 melanoma = system: SK-MEL-28 melanoma
# LOX IMVI melanoma = system: LOX IMVI melanoma
# A549 NSCLC = system: A549 NSCLC
# NCI-H522 lung = system: NCI-H522 lung
# NCI-H23 lung = system: NCI-H23 lung
# SK-MEL-2 melanoma = system: SK-MEL-2 melanoma
# BT-549 breast = system: BT-549 breast
# DU-145 prostate = system: DU-145 prostate
# SF-295 CNS = system: SF-295 CNS
# SF-539 CNS = system: SF-539 CNS
# MALME-3M melanoma = system: MALME-3M melanoma
# HS 578T breast = system: HS 578T breast
compound,measurement,setting,value
CN1C(=O)[C@@]2(C=CC3(CC2)OCCO3)c2ccccc21,TGI,RXF 393 renal,> 50 µM
same,TGI,MDA-MB-435,> 50 µM
same,TGI,OVCAR-3 ovarian,> 50 µM
same,TGI,SNB-19 CNS,> 50 µM
same,TGI,HT29 colon,> 50 µM
same,TGI,SW-620 colon,> 50 µM
same,TGI,UACC-257 melanoma,> 50 µM
same,TGI,U251 CNS,> 50 µM
same,TGI,MDA-MB-231 breast,> 50 µM
same,TGI,K-562 leukemia,> 50 µM
same,TGI,MCF7 breast,> 50 µM
same,TGI,SF-268 CNS,32.2 µM
same,TGI,HCC-2998 colon,> 50 µM
same,TGI,CCRF-CEM leukemia,> 50 µM
same,TGI,SR leukemia,> 50 µM
same,TGI,MDA-N,> 50 µM
same,TGI,HCT-15 colon,> 50 µM
same,TGI,MOLT-4 leukemia,> 50 µM
same,TGI,786-0 renal,> 50 µM
same,TGI,OVCAR-5 ovarian,> 50 µM
same,TGI,IGROV1 ovarian,> 50 µM
same,TGI,SK-MEL-5 melanoma,> 50 µM
same,TGI,T-47D breast,> 50 µM
same,TGI,SK-OV-3 ovarian,> 50 µM
same,TGI,SN12C renal,> 50 µM
same,TGI,COLO 205 colon,> 50 µM
same,TGI,HL-60(TB) leukemia,> 50 µM
same,TGI,M14 melanoma,> 50 µM
same,TGI,PC-3 prostate,> 50 µM
same,TGI,CAKI-1 renal,> 50 µM
same,TGI,UO-31 renal,> 50 µM
same,TGI,RPMI-8226 leukemia,> 50 µM
same,TGI,OVCAR-8 ovarian,> 50 µM
same,TGI,NCI-H460 lung,> 50 µM
same,TGI,UACC-62 melanoma,> 50 µM
same,TGI,A498 renal,> 50 µM
same,TGI,HCT-116 colon,> 50 µM
same,TGI,NCI-H226 lung,> 50 µM
same,TGI,NCI/ADR-RES ovarian,> 50 µM
same,TGI,SNB-75 CNS,49.5 µM
same,TGI,TK-10 renal,> 50 µM
same,TGI,HOP-92 NSCLC,> 50 µM
same,TGI,OVCAR-4 ovarian,> 50 µM
same,TGI,EKVX NSCLC,> 50 µM
same,TGI,ACHN renal,> 50 µM
same,TGI,HOP-62 NSCLC,> 50 µM
same,TGI,KM12 colon,> 50 µM
same,TGI,SK-MEL-28 melanoma,> 50 µM
same,TGI,LOX IMVI melanoma,> 50 µM
same,TGI,A549 NSCLC,> 50 µM
same,TGI,NCI-H522 lung,> 32.4 µM
same,TGI,NCI-H23 lung,> 50 µM
same,TGI,SK-MEL-2 melanoma,> 50 µM
same,TGI,BT-549 breast,> 50 µM
same,TGI,DU-145 prostate,> 50 µM
same,TGI,SF-295 CNS,> 50 µM
O=C(Cc1nc2ccc([N+](=O)[O-])cc2[nH]c1=O)C(=O)Nc1cc(Cl)c(Cl)cc1Cl,TGI,RXF 393 renal,> 100 µM
same,TGI,MDA-MB-435,> 100 µM
same,TGI,OVCAR-3 ovarian,> 100 µM
same,TGI,SNB-19 CNS,> 100 µM
same,TGI,HT29 colon,> 100 µM
same,TGI,SW-620 colon,> 100 µM
same,TGI,UACC-257 melanoma,> 100 µM
same,TGI,U251 CNS,> 100 µM
same,TGI,SF-539 CNS,> 100 µM
same,TGI,MDA-MB-231 breast,> 100 µM
same,TGI,MCF7 breast,> 100 µM
same,TGI,SF-268 CNS,> 100 µM
same,TGI,HCC-2998 colon,> 100 µM
same,TGI,CCRF-CEM leukemia,> 100 µM
same,TGI,SR leukemia,> 100 µM
same,TGI,MDA-N,> 100 µM
same,TGI,HCT-15 colon,> 100 µM
same,TGI,MOLT-4 leukemia,> 100 µM
same,TGI,786-0 renal,> 100 µM
same,TGI,MALME-3M melanoma,> 100 µM
same,TGI,OVCAR-5 ovarian,> 100 µM
same,TGI,IGROV1 ovarian,> 100 µM
same,TGI,SK-MEL-5 melanoma,> 100 µM
same,TGI,T-47D breast,> 100 µM
same,TGI,SK-OV-3 ovarian,> 100 µM
same,TGI,SN12C renal,> 100 µM
same,TGI,HS 578T breast,> 100 µM
same,TGI,COLO 205 colon,> 100 µM
same,TGI,M14 melanoma,> 100 µM
same,TGI,PC-3 prostate,> 100 µM
same,TGI,CAKI-1 renal,> 100 µM
same,TGI,UO-31 renal,> 100 µM
same,TGI,OVCAR-8 ovarian,> 100 µM
same,TGI,NCI-H460 lung,> 100 µM
same,TGI,UACC-62 melanoma,> 100 µM
same,TGI,A498 renal,> 100 µM
same,TGI,HCT-116 colon,> 100 µM
same,TGI,NCI-H226 lung,> 100 µM
same,TGI,NCI/ADR-RES ovarian,> 100 µM
same,TGI,SNB-75 CNS,> 100 µM
same,TGI,TK-10 renal,> 100 µM
same,TGI,HOP-92 NSCLC,> 100 µM
same,TGI,OVCAR-4 ovarian,> 100 µM
same,TGI,EKVX NSCLC,> 100 µM
same,TGI,ACHN renal,> 100 µM
same,TGI,HOP-62 NSCLC,> 100 µM
same,TGI,KM12 colon,> 100 µM
same,TGI,SK-MEL-28 melanoma,> 100 µM
same,TGI,LOX IMVI melanoma,> 100 µM
same,TGI,A549 NSCLC,> 100 µM
same,TGI,NCI-H522 lung,> 100 µM
same,TGI,NCI-H23 lung,> 100 µM
same,TGI,SK-MEL-2 melanoma,> 100 µM
same,TGI,BT-549 breast,> 100 µM
same,TGI,DU-145 prostate,> 100 µM
same,TGI,SF-295 CNS,> 100 µM
CN(C)CCNC(=O)c1cccc2c(NC(CS)C(=O)O)c3ccccc3nc12 (stereo unspecified),TGI,MDA-MB-435,21 µM
same,TGI,OVCAR-3 ovarian,> 100 µM
same,TGI,SNB-19 CNS,50.9 µM
same,TGI,HT29 colon,52.3 µM
same,TGI,SW-620 colon,> 100 µM
same,TGI,UACC-257 melanoma,> 100 µM
same,TGI,U251 CNS,> 100 µM
same,TGI,SF-539 CNS,18.1 µM
same,TGI,MDA-MB-231 breast,23.6 µM
same,TGI,K-562 leukemia,> 100 µM
same,TGI,MCF7 breast,29.5 µM
same,TGI,SF-268 CNS,39.6 µM
same,TGI,HCC-2998 colon,> 100 µM
same,TGI,CCRF-CEM leukemia,> 100 µM
same,TGI,SR leukemia,> 100 µM
same,TGI,MDA-N,20 µM
same,TGI,HCT-15 colon,26.3 µM
same,TGI,MOLT-4 leukemia,44.3 µM
same,TGI,786-0 renal,> 100 µM
same,TGI,MALME-3M melanoma,11.3 µM
same,TGI,OVCAR-5 ovarian,60.4 µM
same,TGI,IGROV1 ovarian,28 µM
same,TGI,SK-MEL-5 melanoma,20 µM
same,TGI,SK-OV-3 ovarian,80.7 µM
same,TGI,SN12C renal,24 µM
same,TGI,COLO 205 colon,16 µM
same,TGI,HL-60(TB) leukemia,9.72 µM
same,TGI,M14 melanoma,19.5 µM
same,TGI,PC-3 prostate,28.2 µM
same,TGI,CAKI-1 renal,57.1 µM
same,TGI,UO-31 renal,11.8 µM
same,TGI,OVCAR-8 ovarian,> 100 µM
same,TGI,NCI-H460 lung,87.6 µM
same,TGI,UACC-62 melanoma,> 100 µM
same,TGI,HCT-116 colon,> 100 µM
same,TGI,NCI-H226 lung,69.2 µM
same,TGI,NCI/ADR-RES ovarian,> 100 µM
same,TGI,SNB-75 CNS,38.5 µM
same,TGI,TK-10 renal,> 100 µM
same,TGI,HOP-92 NSCLC,> 100 µM
same,TGI,OVCAR-4 ovarian,> 100 µM
same,TGI,EKVX NSCLC,39.3 µM
same,TGI,ACHN renal,59.8 µM
same,TGI,HOP-62 NSCLC,41.6 µM
same,TGI,KM12 colon,> 100 µM
same,TGI,SK-MEL-28 melanoma,35.7 µM
same,TGI,LOX IMVI melanoma,21.1 µM
same,TGI,A549 NSCLC,66.9 µM
same,TGI,NCI-H522 lung,20.2 µM
same,TGI,NCI-H23 lung,30.4 µM
same,TGI,SK-MEL-2 melanoma,27.7 µM
same,TGI,BT-549 breast,45.6 µM
same,TGI,DU-145 prostate,> 100 µM
same,TGI,SF-295 CNS,28.9 µM
